“Also recorded” adds a separate entry of the source.

For this data set, the system named is PMR or poly-myalga-rheumatica. The data set is described as follows: Example 19B: patient with PMR (poly-myalga-rheumatica), pain relief. In kind it is in vivo, human. To be noted: for pain relief: PMR pain in neck, shoulders, hands, knees and ankles.

With `Cc1ccc(-c2cc(C(F)(F)F)nn2-c2ccc(S(N)(=O)=O)cc2)cc1` [CELEBREX], the pain relief entry is recorded as “proved to be effective; also recorded: effective as a painkiller”. Also, the side-effects result (human, in vivo) was “did not cause the same side-effects; also recorded: adverse effect on the medication they were taking following a heart attack”. Regarding `CC(=O)Nc1ccc(O)cc1` [Panamax], the pain relief entry is “not effective to relieve their pain”.

The record behind these values is patent US10143716B2, “Pawpaw and/or peach derived composition” (PHOENIX EAGLE COMPANY PTY LTD, priority 2002, dated 2018).
